Target: Glucocerebrosidase (Homo sapiens (Human), UniProt P04062)
Assay: Glucocerebrosidase activity assay with blue substrate (4MU-Glc)
Assay type: biochemical
Details: cells marked (act)
Experimental: The compounds in DMSO solution 0.5 μL/well were transferred to a black 96-well plate. The final titration was 24 nM to 50 μM, 12 concentrations, 2 times dilution. […] After 5 min of incubation at room temperature, the enzyme reaction was initiated by the addition of 33 μL/well blue substrate. Final concentrations of the blue substrate (4MU-Glc) was 1.5 mM. The blue substrate reaction was terminated by the addition of 33 μL/well stop solution (1 M NaOH and 1 M glycine mixture, pH 10) after 30 min of incubation at 37° C. The fluorescence was then measured in the Biotek Synergy H1 multi-mode plate reader with Ex=365 nm and Em=440 nm.
Additional compounds were prepared and tested according to the procedures provided in the examples above.
Additional substituted quinazoline compounds were prepared and tested according to the procedures provided in the examples above.

Sequence of Glucocerebrosidase (P04062 40-536): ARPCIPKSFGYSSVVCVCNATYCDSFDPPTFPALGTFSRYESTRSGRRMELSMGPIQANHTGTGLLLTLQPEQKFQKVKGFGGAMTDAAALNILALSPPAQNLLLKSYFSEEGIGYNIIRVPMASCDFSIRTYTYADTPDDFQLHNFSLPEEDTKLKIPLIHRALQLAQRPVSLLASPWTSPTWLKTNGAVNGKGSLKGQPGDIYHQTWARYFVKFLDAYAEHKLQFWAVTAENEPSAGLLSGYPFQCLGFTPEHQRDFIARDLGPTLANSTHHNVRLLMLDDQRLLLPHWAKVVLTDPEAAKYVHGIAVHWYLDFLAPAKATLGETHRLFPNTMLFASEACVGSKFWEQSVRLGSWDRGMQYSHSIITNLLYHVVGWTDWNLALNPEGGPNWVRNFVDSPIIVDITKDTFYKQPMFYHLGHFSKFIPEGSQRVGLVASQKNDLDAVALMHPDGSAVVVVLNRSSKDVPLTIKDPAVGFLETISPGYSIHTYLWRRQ

IC50 or AC50 (μM): AC50 (act)	SMILES
Weak (act)	Nc1nc(-c2cccnc2)nc2ccccc12 [compound 35]
Weak (act)	[N-]=[N+]=Nc1c(F)c(F)c(CNc2nc(-c3cccnc3)nc3ccccc23)c(F)c1F [compound 37]
Weak (act)	CN1CCN(c2ccc(C(=O)N3CCN(c4nc(-c5cccnc5)nc5ccccc45)CC3)cc2)CC1 [compound 38]
Weak (act)	c1ccc(Nc2nc(-c3cccnc3)nc3ccccc23)cc1 [compound 50]
Weak (act)	CC(C)(C)Nc1nc(-c2cccnc2)nc2ccccc12 [compound 54]
Weak (act)	c1ccc(C2CCCN(c3nc(-c4cccnc4)nc4ccccc34)C2)cc1 (centres unmarked) [compound 82]

Same assay, conditions: cells marked (act); read-out: IC50 or AC50 (μM): AC50 (act)

AC50 [µM]	SMILES
35.5	CN(Cc1ccccn1)c1nc(-c2cccnc2)nc2ccccc12 [compound 5]
11.2	CN(CC1COCCO1)c1nc(-c2cccnc2)nc2ccccc12 (centres unmarked) [compound 6]
12.6	CN(Cc1cccnc1)c1nc(-c2cccnc2)nc2ccccc12 [compound 7]
15.8	CN(Cc1ccncc1)c1nc(-c2cccnc2)nc2ccccc12 [compound 8]
14.1	CN(Cc1cnccn1)c1nc(-c2cccnc2)nc2ccccc12 [compound 9]
0.89	CN(Cc1cnc2ccccc2n1)c1nc(-c2cccnc2)nc2ccccc12 [compound 10]
1	CN(Cc1ccc2c(c1)OCO2)c1nc(-c2cccnc2)nc2ccccc12 [compound 11]
44.7	CN1Cc2ccc(CN(C)c3nc(-c4cccnc4)nc4ccccc34)cc2C1 [compound 13]
1.12	CN(Cc1nc2ccccc2s1)c1nc(-c2cccnc2)nc2ccccc12 [compound 14]
3.13	COc1ccccc1CN(C)c1nc(-c2cccnc2)nc2ccccc12 [compound 16]
1.56	CN(Cc1ccc2ccccc2c1)c1nc(-c2cccnc2)nc2ccccc12 [compound 17]
11.2	CN(Cc1nc2ccccc2o1)c1nc(-c2cccnc2)nc2ccccc12 [compound 18]
3.55	CN(Cc1ccc2nsnc2c1)c1nc(-c2cccnc2)nc2ccccc12 [compound 21]
10	CC(C)(C)OC(=O)N1CCN(c2nc(-c3cccnc3)nc3ccccc23)CC1 [compound 22]
2	CN(Cc1scc2c1OCCO2)c1nc(-c2cccnc2)nc2ccccc12 [compound 24]
35.5	CC(C)Cc1noc(CN(C)c2nc(-c3cccnc3)nc3ccccc23)n1 [compound 25]
1	Cc1ccc(S(=O)(=O)N2CCN(c3nc(-c4cccnc4)nc4ccccc34)CC2)cc1 [compound 26]
0.6	c1cncc(-c2nc(NCCC3COc4ccccc4O3)c3ccccc3n2)c1 (centres unmarked) [compound 27]
2.82	CCN(CC1COc2ccccc2O1)c1nc(-c2cccnc2)nc2ccccc12 (centres unmarked) [compound 28]
3.13	c1cncc(-c2nc(N3CCN(CC4COc5ccccc5O4)CC3)c3ccccc3n2)c1 (centres unmarked) [compound 30]
19.9	CN(Cc1ccc(-n2ccnc2)cc1)c1nc(-c2cccnc2)nc2ccccc12 [compound 31]
3.16	CN(CCC1COc2ccccc2O1)c1nc(-c2cccnc2)nc2ccccc12 (centres unmarked) [compound 32]
39.8	CN1CCN(c2ccc(CNc3nc(-c4cccnc4)nc4ccccc34)cc2)CC1 [compound 36]
5.01	CN(c1nc(-c2cccnc2)nc2ccccc12)C1CCCCC1 [compound 56]
4.47	CN(CCc1cccc(F)c1)c1nc(-c2cccnc2)nc2ccccc12 [compound 59]
2	Nc1ccc(CCNc2nc(-c3cccnc3)nc3ccccc23)cc1 [compound 71]
2.24	c1ccc(CC2CCCCN2c2nc(-c3cccnc3)nc3ccccc23)cc1 (centres unmarked) [compound 83]
2.51	c1ccc(CC2CCCN(c3nc(-c4cccnc4)nc4ccccc34)C2)cc1 (centres unmarked) [compound 87]

SMILES	AC50 [µM]
CN(CC1COc2ccccc2O1)c1nc(-c2cccnc2)nc2ccccc12 (centres unmarked) [compound 3]	1.78
CN(Cc1ccc2c(c1)OCCO2)c1nc(-c2cccnc2)nc2ccccc12 [compound 19]	3.98
c1cncc(-c2nc(N3C4CCC3CC4)c3ccccc3n2)c1 [compound 64]	2.24

Same assay, conditions: cells marked activator

Activity AC50 or IC50 (μM unless nM indicated): AC50, activator	SMILES
Weak activator	CN(c1nc(-c2cccnc2)nc2ccccc12)C1Cc2ccc(C#CCCCCCCCCC(=O)ON3C(=O)CCC3=O)cc2C1 (centres unmarked) [compound 105]
Weak activator	COC(=O)CCCCCCCCC#Cc1ccc(OCCN(C)c2nc(-c3cccnc3)nc3ccccc23)cc1 [compound 109]
Weak activator	CN(CCOc1ccc(C#CCOCCOCCNc2nc(-c3cccnc3)nc3ccccc23)cc1)c1nc(-c2cccnc2)nc2ccccc12 [compound 110]
Weak activator	CN(CCCCCCCCCCN(C)c1nc(-c2cccnc2)nc2ccccc12)c1nc(-c2cccnc2)nc2ccccc12 [compound 112]
Weak activator	c1cncc(-c2nc(N3CCCOCC3)c3ccccc3n2)c1 [compound 116]
Weak activator	CN(c1nc(-c2cccnc2)nc2ccccc12)C1CCCCCCC1 [compound 123]
Weak activator	CN(CCOc1ccccc1)c1nc(-c2ccccn2)nc2ccccc12 [compound 143]
activator	CN(CCOc1ccc(C#CCCCCCCCCC(=O)ON2C(=O)CCC2=O)cc1)c1nc(-c2cccnc2)nc2ccccc12 [compound 153]

Same assay, conditions: cells marked activator; read-out: Activity AC50 or IC50 (μM unless nM indicated): AC50, activator

AC50 [µM]	SMILES
0.62	Cc1ccc(OCCNc2nc(-c3cccnc3)nc3ccccc23)cc1 [compound 90]
35	CN(CCOc1ccc(C#CCCCCCCC#Cc2ccc(OCCN(C)c3nc(-c4cccnc4)nc4ccccc34)cc2)cc1)c1nc(-c2cccnc2)nc2ccccc12 [compound 111]
12.6	C#CCOCCOCCNc1nc(-c2cccnc2)nc2ccccc12 [compound 113]
7.94	c1cncc(-c2nc(N3CCOc4ccccc4C3)c3ccccc3n2)c1 [compound 115]
7.08	COC(=O)CCCCCCCCCCc1ccc(OCCN(C)c2nc(-c3cccnc3)nc3ccccc23)cc1 [compound 117]
22.4	CN(c1nc(-c2cccnc2)nc2ccccc12)C1CCCC1 [compound 118]
3.16	CN(CCCCc1ccccc1)c1nc(-c2cccnc2)nc2ccccc12 [compound 120]
8.91	CN(c1nc(-c2cccnc2)nc2ccccc12)C1CCCCCC1 [compound 121]
5.01	CN(CCc1ccccc1)c1nc(-c2cccnc2)nc2ccccc12 [compound 122]
10	CN(CCOc1ccccc1)c1nc(Cl)nc2ccccc12 [compound 124]
1.25	CN(CCOc1ccccc1)c1nc(-c2cncnc2)nc2ccccc12 [compound 127]
1.25	CN(CCOc1ccccc1)c1nc(-c2ccccc2F)nc2ccccc12 [compound 128]
3.98	CN(CCOc1ccccc1)c1nc(-c2ccncc2)nc2ccccc12 [compound 130]
31.6	CN(CCOc1ccccc1)c1nc(-c2ccco2)nc2ccccc12 [compound 133]
0.65	CN(CCOc1ccccc1)c1nc(-c2ccoc2)nc2ccccc12 [compound 134]
22.4	COc1ccccc1OCCN(C)c1nc(-c2cccnc2)nc2ccccc12 [compound 135]
3.55	Cc1ccc(OCCN(C)c2nc(-c3cccnc3)nc3ccccc23)cc1 [compound 136]
5.01	CN(CCCOc1ccccc1)c1nc(-c2cccnc2)nc2ccccc12 [compound 137]
5.62	CC(CN(C)c1nc(-c2cccnc2)nc2ccccc12)Oc1ccccc1 (centres unmarked) [compound 138]
5.62	CC(COc1ccccc1)N(C)c1nc(-c2cccnc2)nc2ccccc12 (centres unmarked) [compound 139]

Target: wild-type GCase (Homo sapiens (Human), UniProt P04062)
Sequence (P04062 40-536): as above
Assay: GCase enzyme activity assay (4MU-β-Glc substrate, no taurocholate)
Assay type: biochemical
Details: not given
Experimental: In previous studies, high concentrations of taurocholate (4-10 mM) were used to improve the signal in GCase enzyme activity assays^16,27,28. […] Here we describe our modifications of the substituents on the quinazoline ring.
4-Methylumbelliferyl β-D-glucopyranoside (4MU-β-Glc), 4-methylumbelliferyl α-D-glucopyranoside, 4-methylumbelliferyl α-D-galactopyranoside, and buffer components were purchased from Sigma-Aldrich (St. Louis, Mo.). The recombinant wild-type GCase enzyme velaglucerase alfa (Vpriv®, Shire Human Genetic Therapies, Inc.), acid α-glucosidase enzyme alglucosidase alfa (Lumizyme®, Genzyme Corporation), α-galactosidase A enzyme agalsidase beta (Fabrazyme®, Genzyme Corporation) were used in activity assays. […] A solution of 1 M sodium hydroxide and 1 M glycine (pH 10) was used as the stop solution for all three enzyme activity assays.
GCase Enzyme Activity Assay. The compounds in DMSO solution (0.5 μL/well) were transferred to a black 96-well plate (the final titration started from 100 μM, a 12 or 24-point 2-fold dilution series). […] After 5 min of incubation at room temperature, the enzyme reaction was initiated by the addition of blue substrate (4MU-β-Glc) (33 μL/well). The final concentration of the blue substrate was 1.5 mM. The blue substrate reaction was terminated by the addition of 33 μL/well stop solution (1 M NaOH and 1 M glycine mixture, pH 10) after 30 min of incubation at 37° C. […] The selected compounds were further assayed under pH 5.0 and pH 7.0 to evaluate their selectivity under various pH conditions.

SMILES	inhibitory activity against GCase (in words)
c1cncc(-c2nc(NC3CCCc4ccccc43)c3ccccc3n2)c1 (centres unmarked) [Compound 9d]	low micromolar range
c1cncc(-c2nc(NC3CCc4ccccc43)c3ccccc3n2)c1 (centres unmarked) [Compound 9e]	low micromolar range

Same assay, conditions: Table 4, pH 5.9, mean ± SD, triplicate

IC50 [µM]	SMILES
0.035 ± 0.003	c1cncc(-c2nc(NC3COc4ccccc4C3)c3ccccc3n2)c1 (centres unmarked) [Compound 9f]

From patent US10501435B2, “Substituted quinazoline compounds and uses thereof for modulating glucocerebrosidase activity” (Northwestern University, priority 2015, dated 2019)
